Laboratory results published in PubChem BioAssay AID330 (DTP/NCI, 2004).
Values joined by “and” are separate entries in the source; they are usually repeats but may differ in a detail not shown here. Equal values may be shown once. Inconclusive results and toxic doses are left out. How the source made its calls: active means survival T/C of 150% or more; inactive means T/C below 125% in these data.

System: P388 leukemia ip, CD2F1 mice, survival T/C
Test: NCI In Vivo Anticancer Drug Screen. Data for tumor model P388 Leukemia (intraperitoneal) in CD2F1 (CDF1) mice
Settings: endpoint: median survival time, higher = longer survival
In short: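 Mice carrying the transplanted tumor received test compound or vehicle. Survival was recorded in each group, and the value is the treated-group measurement divided by that of the vehicle-treated control group.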

[1] = dose: 50.0 mg/kg/injection, schedule: Q01DX009 (ip), vehicle: saline with Tween-80
[2] = dose: 100.0 mg/kg/injection, schedule: Q01DX009 (ip), vehicle: saline with Tween-80
[3] = dose: 200.0 mg/kg/injection, schedule: Q01DX009 (ip), vehicle: saline with Tween-80
[4] = dose: 50.0 mg/kg/injection, schedule: Q01DX009 (ip), vehicle: Klucel (hydroxypropylcellulose) (HPC)
[5] = dose: 100.0 mg/kg/injection, schedule: Q01DX009 (ip), vehicle: Klucel (hydroxypropylcellulose) (HPC)
[6] = dose: 25.0 mg/kg/injection, schedule: Q01DX009 (ip), vehicle: saline with Tween-80

Measured: T/C

CN(C)c1ccc2c(Cl)ccnc2c1
inactive: dose: 12.5 mg/kg/injection, schedule: Q01DX005 (ip), vehicle: saline with Tween-80 100 % of control | dose: 25.0 mg/kg/injection, schedule: Q01DX005 (ip), vehicle: saline with Tween-80 103 % of control | dose: 50.0 mg/kg/injection, schedule: Q01DX005 (ip), vehicle: saline with Tween-80 103 % of control and 86 % of control

O=C(Nc1ccc(Br)cc1C(F)(F)F)O/N=C(\c1ccccc1)C(O)c1ccccc1 (stereo unspecified)
inactive: [1] 101 % of control | [2] 96 % of control | [3] 100 % of control

COc1cccc2c1C(=O)c1c(O)c3c(c(O)c1C2=O)C[C@@](O)(/C(CO)=N/NC(=O)c1ccc(Cl)c(Cl)c1)C[C@@H]3OC1CC(N)C(O)C(C)O1 (stereo partly specified)
inactive: dose: 0.12 mg/kg/injection, schedule: Q01DX009 (ip), vehicle: water 116 % of control | dose: 1.56 mg/kg/injection, schedule: Q04DX003 (ip), vehicle: water 108 % of control | dose: 2.0 mg/kg/injection, schedule: Q04DX003 (ip), vehicle: saline 99 % of control and 105 % of control and 118 % of control | dose: 3.13 mg/kg/injection, schedule: Q04DX003 (ip), vehicle: water 104 % of control and 121 % of control | dose: 4.0 mg/kg/injection, schedule: Q04DX003 (ip), vehicle: saline 108 % of control and 116 % of control | dose: 100.0 mg/kg/injection, schedule: Q04DX003 (ip), vehicle: water 124 % of control | dose: 512.0 mg/kg/injection, schedule: Q04DX003 (ip), vehicle: saline 99 % of control | dose: 1024.0 mg/kg/injection, schedule: Q04DX003 (ip), vehicle: saline 90 % of control
109 % of control and 241 % of control: dose: 8.0 mg/kg/injection, schedule: Q01DX009 (ip), vehicle: water
active: dose: 1.0 mg/kg/injection, schedule: Q01DX009 (ip), vehicle: water 153 % of control and 172 % of control | dose: 2.0 mg/kg/injection, schedule: Q01DX009 (ip), vehicle: water 154 % of control and 176 % of control | dose: 4.0 mg/kg/injection, schedule: Q01DX009 (ip), vehicle: water 202 % of control and 205 % of control | dose: 6.25 mg/kg/injection, schedule: Q04DX003 (ip), vehicle: water 155 % of control | dose: 25.0 mg/kg/injection, schedule: Q04DX003 (ip), vehicle: water 166 % of control and 167 % of control

CC(C)(C)N1OC1C(Cl)(Cl)Cl (stereo unspecified)
inactive: dose: 60.0 mg/kg/injection, schedule: Q01DX005 (ip), vehicle: saline with Tween-80 101 % of control | dose: 120.0 mg/kg/injection, schedule: Q01DX005 (ip), vehicle: saline with Tween-80 104 % of control | dose: 240.0 mg/kg/injection, schedule: Q01DX005 (ip), vehicle: saline with Tween-80 104 % of control

COc1ccc(C2C(C#N)C(=O)NC(=O)C2C#N)cc1OC (stereo unspecified)
inactive: [4] 98 % of control | [5] 107 % of control | dose: 200.0 mg/kg/injection, schedule: Q01DX009 (ip), vehicle: Klucel (hydroxypropylcellulose) (HPC) 111 % of control

CN(C)C1CCC(NC2=CC(=O)C=CC2=O)CC1 (stereo unspecified)
inactive: dose: 0.78 mg/kg/injection, schedule: Q01DX005 (ip), vehicle: saline 101 % of control | dose: 1.56 mg/kg/injection, schedule: Q01DX005 (ip), vehicle: saline 97 % of control | dose: 3.12 mg/kg/injection, schedule: Q01DX005 (ip), vehicle: saline 97 % of control

Cc1ccnc(NN=O)c1
inactive: dose: 1.5 mg/kg/injection, schedule: Q01DX009 (ip), vehicle: water 109 % of control | dose: 1.56 mg/kg/injection, schedule: Q01DX009 (ip), vehicle: water 100 % of control | dose: 3.0 mg/kg/injection, schedule: Q01DX009 (ip), vehicle: water 109 % of control | dose: 3.12 mg/kg/injection, schedule: Q01DX009 (ip), vehicle: water 117 % of control | dose: 12.5 mg/kg/injection, schedule: Q01DX009 (ip), vehicle: water 87 % of control
active: dose: 6.25 mg/kg/injection, schedule: Q01DX009 (ip), vehicle: water 159 % of control

CC(C)NCC(O)COc1ccc(O)c(O)c1 (stereo unspecified)
inactive: dose: 25.0 mg/kg/injection, schedule: Q01DX009 (ip), vehicle: saline 100 % of control | dose: 100.0 mg/kg/injection, schedule: Q01DX009 (ip), vehicle: saline 123 % of control

O=C(OC[P+](c1ccccc1)(c1ccccc1)c1ccccc1)c1ccccc1
inactive: dose: 50.0 mg/kg/injection, schedule: Q01DX009 (ip), vehicle: saline 89 % of control

Cc1ccc(C2(C)OC(CCl)CS2)c(C)c1 (stereo unspecified)
inactive: [6] 101 % of control and 98 % of control | [1] 104 % of control and 98 % of control | [2] 105 % of control | [3] 107 % of control and 119 % of control

O=[N+]([O-])c1ccc(O)c([N+](=O)[O-])c1
inactive: dose: 1.0 mg/kg/injection, schedule: Q01DX005 (ip), vehicle: saline with Tween-80 96 % of control | dose: 2.0 mg/kg/injection, schedule: Q01DX005 (ip), vehicle: saline with Tween-80 108 % of control | dose: 4.0 mg/kg/injection, schedule: Q01DX005 (ip), vehicle: saline with Tween-80 106 % of control | dose: 6.25 mg/kg/injection, schedule: Q01DX009 (ip), vehicle: saline with Tween-80 100 % of control | dose: 8.0 mg/kg/injection, schedule: Q01DX005 (ip), vehicle: saline with Tween-80 104 % of control | dose: 12.5 mg/kg/injection, schedule: Q01DX009 (ip), vehicle: saline with Tween-80 100 % of control | dose: 16.0 mg/kg/injection, schedule: Q01DX005 (ip), vehicle: saline with Tween-80 103 % of control | [6] 90 % of control | dose: 25.0 mg/kg/injection, schedule: Q04DX003 (ip), vehicle: saline with Tween-80 90 % of control | dose: 32.0 mg/kg/injection, schedule: Q01DX005 (ip), vehicle: saline with Tween-80 102 % of control

CCSCC1C(=O)C23CC1CCC2C12COC(O)C1C(C)(C)C(O)CC2OC3=O (stereo unspecified)
inactive: dose: 3.12 mg/kg/injection, schedule: Q01DX009 (ip), vehicle: Klucel (hydroxypropylcellulose) (HPC) 103 % of control | dose: 6.25 mg/kg/injection, schedule: Q01DX009 (ip), vehicle: Klucel (hydroxypropylcellulose) (HPC) 107 % of control | dose: 12.5 mg/kg/injection, schedule: Q01DX009 (ip), vehicle: Klucel (hydroxypropylcellulose) (HPC) 103 % of control | [4] 109 % of control | [5] 107 % of control

CN1OC(=O)OC2(CCCCC2)C1=O
inactive: dose: 50.0 mg/kg/injection, schedule: Q01DX005 (ip), vehicle: saline 96 % of control | dose: 100.0 mg/kg/injection, schedule: Q01DX005 (ip), vehicle: saline 99 % of control | dose: 200.0 mg/kg/injection, schedule: Q01DX005 (ip), vehicle: saline 96 % of control

CC1=C2C(=O)[C@H]3[C@@H](CC=C4C[C@@H](O)CC[C@@]43C)[C@@H]2CC[C@]12O[C@@H]1C[C@H](C)CN[C@H]1[C@H]2C
inactive: [6] 98 % of control | [1] 92 % of control | [2] 92 % of control

Nc1nc(N)c(-c2ccc(Cl)c(Cl)c2)c(COc2cccc(CNC(=O)c3cccc(S(=O)(=O)F)c3)c2)n1
inactive: dose: 100.0 mg/kg/injection, schedule: Q04DX003 (ip), vehicle: Klucel (hydroxypropylcellulose) (HPC) 110 % of control | dose: 400.0 mg/kg/injection, schedule: Q04DX003 (ip), vehicle: Klucel (hydroxypropylcellulose) (HPC) 120 % of control

CSc1ccc(NC(=O)Nc2nccs2)cc1
inactive: dose: 100.0 mg/kg/injection, schedule: Q04DX003 (ip), vehicle: saline with Tween-80 95 % of control | dose: 200.0 mg/kg/injection, schedule: Q04DX003 (ip), vehicle: saline with Tween-80 100 % of control | dose: 400.0 mg/kg/injection, schedule: Q04DX003 (ip), vehicle: saline with Tween-80 90 % of control

COC(=O)c1ccccc1NC(=NC(C)(C)C)c1ccccc1
inactive: [1] 98 % of control | [2] 98 % of control | [3] 91 % of control

Nc1nc(N)c2nc(CN(CCO)c3ccc(C(=O)NC(CCC(=O)O)C(=O)O)cc3)cnc2n1 (stereo unspecified)
inactive: dose: 6.0 mg/kg/injection, schedule: Q01DX009 (ip), vehicle: Klucel (hydroxypropylcellulose) (HPC) 92 % of control
active: dose: 1.0 mg/kg/injection, schedule: Q01DX009 (ip), vehicle: Klucel (hydroxypropylcellulose) (HPC) 190 % of control | dose: 1.2 mg/kg/injection, schedule: Q01DX009 (ip), vehicle: Klucel (hydroxypropylcellulose) (HPC) 153 % of control | dose: 1.8 mg/kg/injection, schedule: Q01DX009 (ip), vehicle: Klucel (hydroxypropylcellulose) (HPC) 181 % of control | dose: 2.0 mg/kg/injection, schedule: Q01DX009 (ip), vehicle: Klucel (hydroxypropylcellulose) (HPC) 205 % of control | dose: 2.6 mg/kg/injection, schedule: Q01DX009 (ip), vehicle: Klucel (hydroxypropylcellulose) (HPC) 195 % of control | dose: 4.0 mg/kg/injection, schedule: Q01DX009 (ip), vehicle: Klucel (hydroxypropylcellulose) (HPC) 204 % of control and 223 % of control

CC(/C=C/c1ccccc1)=Nc1ccccc1
inactive: [1] 109 % of control and 112 % of control | [2] 114 % of control and 123 % of control | [3] 123 % of control
